{
  "source": "ChEMBL document CHEMBL3045592",
  "about": "“Studies of O,O-dimethyl α-(2,4-dichlorophenoxyacetoxy)ethylphosphonate (HW02) as a new herbicide. 1. Synthesis and herbicidal activity of HW02 and analogues as novel inhibitors of pyruvate dehydrogenase complex” (J Agric Food Chem, 2011)",
  "key": {"[1]": {"system": "Brassica juncea", "experiment": "Post-emergence herbicidal activity against Brassica juncea assessed as growth inhibition at 450 ai g/ha after 20 days by green house test", "format": "functional"}, "[2]": {"system": "Digitaria sanguinalis", "experiment": "Post-emergence herbicidal activity against Digitaria sanguinalis (hairy crabgrass) assessed as growth inhibition at 75 ai g/ha after 20 days by green house test", "format": "functional"}, "[3]": {"system": "Chenopodium album", "experiment": "Post-emergence herbicidal activity against Chenopodium album assessed as growth inhibition at 450 ai g/ha after 20 days by green house test", "format": "functional"}, "[4]": {"system": "Chenopodium album", "experiment": "Pre-emergence herbicidal activity against Chenopodium album assessed as growth inhibition at 450 ai g/ha after 20 days by green house test", "format": "functional"}, "[5]": {"system": "Chenopodium album", "experiment": "Pre-emergence herbicidal activity against Chenopodium album assessed as growth inhibition at 75 ai g/ha after 20 days by green house test", "format": "functional"}, "[6]": {"system": "Amaranthus spinosus", "experiment": "Post-emergence herbicidal activity against Amaranthus spinosus assessed as growth inhibition at 450 ai g/ha after 20 days by green house test", "format": "functional"}, "[7]": {"system": "Amaranthus spinosus", "experiment": "Post-emergence herbicidal activity against Amaranthus spinosus assessed as growth inhibition at 150 ai g/ha after 20 days by green house test", "format": "functional"}, "[8]": {"system": "Amaranthus spinosus", "experiment": "Post-emergence herbicidal activity against Amaranthus spinosus assessed as growth inhibition at 75 ai g/ha after 20 days by green house test", "format": "functional"}, "[9]": {"target": "T1, Pyruvate dehydrogenase complex (Pisum sativum) (UniProt P52902+P52904)", "experiment": "Inhibition of PDHc in Pisum sativum Zhongwan-2 (pea) shoot mitochondria assessed as decrease in rate of NADH formation using sodium pyruvate as substrate at 100 microg/g preincubated for 25 min before substrate addition measured after 1 min by spectrophotometric assay", "format": "protein-complex assay", "settings": "Lathyrus oleraceus"}, "[10]": {"target": "T1, Pyruvate dehydrogenase complex (Pisum sativum)", "experiment": "Inhibition of PDHc in Pisum sativum Zhongwan-2 (pea) shoot mitochondria assessed as decrease in rate of NADH formation using sodium pyruvate as substrate at 1000 microg/g preincubated for 25 min before substrate addition measured after 1 min by spectrophotometric assay", "format": "protein-complex assay", "settings": "Lathyrus oleraceus"}, "[11]": {"target": "T2, Pyruvate dehydrogenase complex (Pisum sativum, UniProt P52902+P52904)", "T2 sequence (P52902 whole entry)": "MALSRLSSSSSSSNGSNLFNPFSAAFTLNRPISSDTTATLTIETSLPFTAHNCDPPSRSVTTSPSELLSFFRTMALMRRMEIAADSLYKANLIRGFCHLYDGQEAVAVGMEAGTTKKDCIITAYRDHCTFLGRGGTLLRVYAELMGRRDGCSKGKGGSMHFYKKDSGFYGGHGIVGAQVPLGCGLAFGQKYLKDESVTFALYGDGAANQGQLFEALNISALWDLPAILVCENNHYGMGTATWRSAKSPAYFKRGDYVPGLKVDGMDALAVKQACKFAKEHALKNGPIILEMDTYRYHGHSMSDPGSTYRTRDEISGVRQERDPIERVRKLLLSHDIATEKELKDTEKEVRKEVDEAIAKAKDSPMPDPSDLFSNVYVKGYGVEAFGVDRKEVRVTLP", "T2 sequence (P52904 whole entry)": "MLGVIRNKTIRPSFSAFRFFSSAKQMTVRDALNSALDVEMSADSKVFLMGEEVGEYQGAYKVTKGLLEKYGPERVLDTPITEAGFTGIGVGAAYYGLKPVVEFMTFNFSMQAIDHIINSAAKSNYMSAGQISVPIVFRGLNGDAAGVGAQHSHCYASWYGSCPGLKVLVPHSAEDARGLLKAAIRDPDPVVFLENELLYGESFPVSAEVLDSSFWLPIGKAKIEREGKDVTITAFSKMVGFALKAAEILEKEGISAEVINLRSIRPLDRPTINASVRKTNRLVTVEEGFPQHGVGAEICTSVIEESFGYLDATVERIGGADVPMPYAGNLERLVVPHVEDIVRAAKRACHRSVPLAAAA", "experiment": "Inhibition of PDHc in Pisum sativum Zhongwan-2 (pea) shoot mitochondria assessed as decrease in rate of NADH formation using sodium pyruvate as substrate preincubated for 25 min before substrate addition measured after 1 min by spectrophotometric assay", "format": "protein-complex assay, Lathyrus oleraceus"}, "[12]": {"system": "Abutilon theophrasti", "experiment": "Post-emergence herbicidal activity against Abutilon theophrasti (velvetleaf) assessed as growth inhibition at 75 ai g/ha after 20 days by green house test", "format": "functional"}, "[13]": {"system": "Abutilon theophrasti", "experiment": "Pre-emergence herbicidal activity against Abutilon theophrasti (velvetleaf) assessed as growth inhibition at 450 ai g/ha after 20 days by green house test", "format": "functional"}, "[14]": {"system": "Abutilon theophrasti", "experiment": "Pre-emergence herbicidal activity against Abutilon theophrasti (velvetleaf) assessed as growth inhibition at 75 ai g/ha after 20 days by green house test", "format": "functional"}, "[15]": {"system": "Echinochloa crus-galli", "experiment": "Post-emergence herbicidal activity against Echinochloa crus-galli (barnyard grass) assessed as growth inhibition at 1500 ai g/ha after 20 days by green house test", "format": "functional"}, "[16]": {"system": "Medicago sativa", "experiment": "Pre-emergence herbicidal activity against Medicago sativa (alfalfa) assessed as growth inhibition at 1500 ai g/ha after 20 days by green house test", "format": "functional"}, "[17]": {"system": "Amaranthus retroflexus", "experiment": "Pre-emergence herbicidal activity against Amaranthus retroflexus assessed as growth inhibition at 1500 ai g/ha after 20 days by green house test", "format": "functional"}, "[18]": {"system": "Brassica rapa subsp. oleifera", "experiment": "Pre-emergence herbicidal activity against Brassica rapa subsp. oleifera Si Yue Man assessed as growth inhibition at 1500 ai g/ha after 20 days by green house test", "format": "functional"}, "[19]": {"system": "Digitaria sanguinalis", "experiment": "Pre-emergence herbicidal activity against Digitaria sanguinalis (hairy crabgrass) assessed as growth inhibition at 1500 ai g/ha after 20 days by green house test", "format": "functional"}, "[20]": {"system": "Echinochloa crus-galli", "experiment": "Pre-emergence herbicidal activity against Echinochloa crus-galli (barnyard grass) assessed as growth inhibition at 1500 ai g/ha after 20 days by green house test", "format": "functional"}, "[21]": {"system": "Amaranthus spinosus", "experiment": "Pre-emergence herbicidal activity against Amaranthus spinosus assessed as growth inhibition at 450 ai g/ha after 20 days by green house test", "format": "functional"}, "[22]": {"system": "Amaranthus spinosus", "experiment": "Pre-emergence herbicidal activity against Amaranthus spinosus assessed as growth inhibition at 150 ai g/ha after 20 days by green house test", "format": "functional"}, "[23]": {"system": "Amaranthus spinosus", "experiment": "Pre-emergence herbicidal activity against Amaranthus spinosus assessed as growth inhibition at 75 ai g/ha after 20 days by green house test", "format": "functional"}, "[24]": {"system": "Abutilon theophrasti", "experiment": "Post-emergence herbicidal activity against Abutilon theophrasti (velvetleaf) assessed as growth inhibition at 450 ai g/ha after 20 days by green house test", "format": "functional"}, "[25]": {"system": "Amaranthus retroflexus", "experiment": "Post-emergence herbicidal activity against Amaranthus retroflexus assessed as growth inhibition at 450 ai g/ha after 20 days by green house test", "format": "functional"}, "[26]": {"system": "Abutilon theophrasti", "experiment": "Post-emergence herbicidal activity against Abutilon theophrasti (velvetleaf) assessed as growth inhibition at 150 ai g/ha after 20 days by green house test", "format": "functional"}, "[27]": {"system": "Setaria viridis", "experiment": "Post-emergence herbicidal activity against Setaria viridis (green foxtail) assessed as growth inhibition at 450 ai g/ha after 20 days by green house test", "format": "functional"}, "[28]": {"system": "Setaria viridis", "experiment": "Post-emergence herbicidal activity against Setaria viridis (green foxtail) assessed as growth inhibition at 150 ai g/ha after 20 days by green house test", "format": "functional"}, "[29]": {"system": "Setaria viridis", "experiment": "Post-emergence herbicidal activity against Setaria viridis (green foxtail) assessed as growth inhibition at 75 ai g/ha after 20 days by green house test", "format": "functional"}, "[30]": {"system": "Setaria viridis", "experiment": "Pre-emergence herbicidal activity against Setaria viridis (green foxtail) assessed as growth inhibition at 150 ai g/ha after 20 days by green house test", "format": "functional"}, "[31]": {"system": "Digitaria sanguinalis", "experiment": "Post-emergence herbicidal activity against Digitaria sanguinalis (hairy crabgrass) assessed as growth inhibition at 450 ai g/ha after 20 days by green house test", "format": "functional"}},
  "data": [
    {"smiles": "COP(=O)(COC(=O)COc1cccc(C(F)(F)F)c1)OC", "values": [
      {"measurement": "growth inhibition (GI)", "setting": "[1]", "result": 82.5, "unit": "%"},
      {"measurement": "growth inhibition (GI)", "setting": "[2]", "result": 0, "unit": "%"},
      {"measurement": "growth inhibition (GI)", "setting": "[3]", "result": 82.5, "unit": "%"},
      {"measurement": "growth inhibition (GI)", "setting": "[4]", "result": 0, "unit": "%"},
      {"measurement": "growth inhibition (GI)", "setting": "[5]", "result": 0, "unit": "%"},
      {"measurement": "growth inhibition (GI)", "setting": "[6]", "result": 57.5, "unit": "%"},
      {"measurement": "growth inhibition (GI)", "setting": "[7]", "result": 0, "unit": "%"},
      {"measurement": "growth inhibition (GI)", "setting": "[8]", "result": 0, "unit": "%"},
      {"measurement": "inhibition", "setting": "[9]", "result": 49.2, "unit": "%"},
      {"measurement": "inhibition", "setting": "[10]", "result": 60.7, "unit": "%"},
      {"measurement": "IC50", "setting": "[11]", "result": 442, "unit": "µM"},
      {"measurement": "growth inhibition (GI)", "setting": "[12]", "result": 27.5, "unit": "%"},
      {"measurement": "growth inhibition (GI)", "setting": "[13]", "result": 0, "unit": "%"},
      {"measurement": "growth inhibition (GI)", "setting": "[14]", "result": 0, "unit": "%"},
      {"measurement": "growth inhibition (GI)", "setting": "[15]", "result": "<=50%"},
      {"measurement": "growth inhibition (GI)", "setting": "[16]", "result": 75, "unit": "%"},
      {"measurement": "growth inhibition (GI)", "setting": "[17]", "result": 50, "unit": "%"},
      {"measurement": "growth inhibition (GI)", "setting": "[18]", "result": 75, "unit": "%"},
      {"measurement": "growth inhibition (GI)", "setting": "[19]", "result": 75, "unit": "%"},
      {"measurement": "growth inhibition (GI)", "setting": "[20]", "result": 50, "unit": "%"},
      {"measurement": "growth inhibition (GI)", "setting": "[21]", "result": 0, "unit": "%"},
      {"measurement": "growth inhibition (GI)", "setting": "[22]", "result": 0, "unit": "%"},
      {"measurement": "growth inhibition (GI)", "setting": "[23]", "result": 0, "unit": "%"},
      {"measurement": "growth inhibition (GI)", "setting": "[24]", "result": 87.5, "unit": "%"},
      {"measurement": "growth inhibition (GI)", "setting": "[25]", "result": 57.5, "unit": "%"},
      {"measurement": "growth inhibition (GI)", "setting": "[26]", "result": 42.5, "unit": "%"},
      {"measurement": "growth inhibition (GI)", "setting": "[27]", "result": 0, "unit": "%"},
      {"measurement": "growth inhibition (GI)", "setting": "[28]", "result": 0, "unit": "%"},
      {"measurement": "growth inhibition (GI)", "setting": "[29]", "result": 0, "unit": "%"},
      {"measurement": "growth inhibition (GI)", "setting": "[30]", "result": 0, "unit": "%"},
      {"measurement": "growth inhibition (GI)", "setting": "[31]", "result": 0, "unit": "%"}
    ]}
  ]
}
